Assay type in all cases: in vivo
The test system of data set [1] is Abutilon theophrasti. As to the kind of experiment: Procedure D: pre-emergence field trial (Volga, Brookings), visual assessment about 26 days after treatment. On the procedure:
(§1) The following experiments were carried out pre-emergence of the weed species. Compound A, formulated as a wettable dispersible granule as described in Example 1 herebelow (750g per kilogram) and each acetochlor (used as the commercially available formulation "Harness" (trade mark), an emulsifiable concentrate containing 960g of acetochlor per kilogram, and which also contains the safening agent flurazole, metolachlor (used as the commercially available formulation "Duelor" (trade mark), an emulsifiable concentrate emulsifiable concentrate containing 960g of metolachlor per kilogram), alachlor (used as the commercially available formulation "Lasso" (trade mark), an emulsifiable concentrate containing 480g of alachlor per kilogram) and dimethenamid (used as the commercially available formulation "Frontiere" (trade mark), a flowable containing 900g/l active ingerident) were dissolved in water and sprayed at a volume rate of 187 litres/hectare on various test plots (10 square meters in area) either alone or in mixtures. The soil was a clay-loam, with a pH of 7, the experiments being conducted in June in Volga, Brookings, U.S.A. The various weed and crop species were drill sown and the various compositions were applied on the same day after drilling. Three replicates were performed and the efficacy of the various mixtures were determined by visual assessment of the percentage phytotoxicity in comparison with an untreated control. Assessment was made about 26 days after treatment. In the Tables which follow the dose is expressed in grammes per hectare and the figures in brackets represent the expected results according to the Colby formula.

In the next data set the test system is Helianthus annuus. Described as above. On the procedure:
as §1

The next data set relates to Panicum miliaceum. The description is as above. The method, then:
as §1

In another data set the test system is Digitaria sanguinalis. As to the kind of experiment: Procedure A: pre-emergence glasshouse pot test, growth reduction assessed two weeks after treatment. The text has this: (§2) Seed of the various species of broad-leaf or grass weeds were sown in unsterilised clay loam soil in 7 centimetre by 7 centimetre plastic plant pots. The pots were watered and allowed to drain. The soil surface was then sprayed with ranges of concentrations of either the individual herbicide or mixtures of two herbicides in various proportions, dissolved in a 50:50 by volume solution of acetone and water, using a track sprayer set to deliver the equivalent of 290 l/ha. All herbicides were used as unformulated technical materials except dimethenamid, which was used as the commercial formulation "Frontiere" (trade mark), a flowable containing 900g/l active ingredient; and alachlor, which was used as "Lasso" (trade mark), an emulsifiable concentrate formulation containing 480g/l active ingredient.
(§3) Treated pots were placed at random in four replicate blocks per treatment for each plant species. The pots were held, in a glasshouse, standing on moist capillary matting, under lights and with overhead watering twice daily.
(§4) Two weeks after treatment the percent reduction in plant growth, compared to an untreated control, was assessed.
(§5) Mean percent reduction in plant growth was calculated for each treatment. Dose/mean response was plotted on Log concentration/Probability graph paper, and lines fitted by eye. For herbicide mixtures a dose/response line for the first herbicide was drawn for each dose rate of the second herbicide and a dose/response line for the second herbicide was drawn for each dose rate of the first herbicide. The doses representing a 90% reduction in plant growth (LD90's) were read from these lines and plotted on graphs whose axes were dose rates of the two herbicides. The line joining these points is an Isobole i.e. a line joining points (mixtures) of equal activity, as described by P.M.L. Tammes, Neth. J. Plant Path. 70 (1964) : 73-80. A line was also drawn joining the LD90's of the individual components of the mixture. This line represents the theoretical isobole if the effect of the two components is additive i.e. there is no interaction between them. Isoboles falling below this line indicate synergy between the components while lines lying above it indicate antagonism.
(§6) In the tables that follow 'dose' represents the dose rate in grammes per hectare of the active ingredient used; and the figures for the weed control are percentages reduction in growth when compared with the untreated controls.

The next data set concerns Echinochloa crus-galli. Described as above.
Excerpt: as §2, §3, §4, §5, §6

The test system of another data set is maize (Zea mays). As to the kind of experiment: Procedure D: pre-emergence field trial (Volga, Brookings), crop phytotoxicity about 26 days after treatment. On the procedure: as §1
Data set [2] deals with Abutilon theophrasti. As to the kind of experiment: Procedure B: pre-emergence field trial (research farm in Brazil), visual assessment 36 or 40 days from sowing. The method, then:
(§7) The experiments were carried out pre-emergence of the weed species at • (i) a research farm in Brazil with Compounds B and C (each formulated as a wettable powder) and metolachlor, (formulated as a suspension concentrate); and • (ii) in research farms in the Mid West corn belt of the United States with compound D (formulated as a wettable powder) and metolachlor (formulated as a suspension concentrate).
(§8) A solution of the two active ingredients (a.i.) was mixed for one hour and applied at a spray volume of 231 litres/hectare to a 3 metre by 5 metre test plot comprising the weed species which were sown 2 days earlier. 3 replicates were performed. A control plot was sprayed with a solution not containing test compound. Visual assessment of phytotoxicity was made after 36 or 40 days from sowing each weed species based on a comparison with the control plot.
(§9) The tables below show the observed percentage control of the weed species by each combination, with the figure in brackets representing the predicted value using the Limpel formula. The dose rates are in grammes per hectare. Table E1

Data set [3] concerns Amaranthus retroflexus. As to the kind of experiment: Procedure B: pre-emergence field trial (Mid West corn belt research farms), visual assessment 36 or 40 days from sowing. On the procedure:
as §7, §8, §9

A further data set has as its system Setaria faberii. Described as above. On the procedure: as §7, §8, §9
Data set [4] has as its system Amaranthus retroflexus. As to the kind of experiment: Procedure A: pre-emergence glasshouse pot test, growth reduction assessed two weeks after treatment.
Excerpt: as §2, §3, §4, §5, §6

A further data set relates to Setaria viridis. The data set is described as above.
Excerpt: as §2, §3, §4, §5, §6

Setting [5] is: acetochlor 480 g/ha alone (Harness, contains safener flurazole).
Where [6] appears, read: D 37.5 g/ha alone, 1st Research Farm.
Setting [7] is: D 37.5 g/ha alone, 2nd Research Farm.
[8] abbreviates: D 37.5 g/ha alone, 3rd Research Farm.
[9] abbreviates: metolachlor 480 g/ha alone, 1st Research Farm.
[10] abbreviates: metolachlor 480 g/ha alone, 2nd Research Farm.
Setting [11] is: metolachlor 480 g/ha alone, 3rd Research Farm.

With `CCOCN(C(=O)CCl)c1c(C)cccc1CC` [Acetochlor, 2-chloro-N-ethoxymethyl-6'-ethylacet-o-toluidide, reference compound], the percentage phytotoxicity in the data set with Abutilon theophrasti [1] (setting [5]) is reported as 35%; in the data set on Helianthus annuus (setting [5]) it was 10%; in the data set with Panicum miliaceum (setting [5]) it was 72%; in the data set with maize (Zea mays) (setting [5]), 0%. Further, the “percent reduction in plant growth” value is reported as 0% with Digitaria sanguinalis (acetochlor 3.75 g/ha alone); 0% in the data set on Digitaria sanguinalis (acetochlor 7.5 g/ha alone); 7.5% in the data set on Digitaria sanguinalis (acetochlor 15 g/ha alone); 32.5% with Digitaria sanguinalis (acetochlor 30 g/ha alone); 85% with Digitaria sanguinalis (acetochlor 60 g/ha alone); 100% with Digitaria sanguinalis (acetochlor 120 g/ha alone). The “percent reduction in plant growth” value with Digitaria sanguinalis (acetochlor 240 g/ha alone) is 98.75%; in the data set with Echinochloa crus-galli (acetochlor 3.75 g/ha alone), 12.5%; in the data set with Echinochloa crus-galli (acetochlor 7.5 g/ha alone) it was 36.25%; in the data set with Echinochloa crus-galli (acetochlor 15 g/ha alone), 55%; with Echinochloa crus-galli (acetochlor 30 g/ha alone), 88.75%; with Echinochloa crus-galli (acetochlor 60 g/ha alone), 98.75%. Moreover, the figures for the “percent reduction in plant growth” value in the data set with Echinochloa crus-galli (acetochlor 120 g/ha alone) and in the data set with Echinochloa crus-galli (acetochlor 240 g/ha alone) were 98.75% and 100%, respectively.

Regarding `CCc1cccc(CC)c1N(COC)C(=O)CCl` [Alachlor, 2-chloro-2',6'-diethyl-N-methoxymethylacetanilide, reference compound], the percentage phytotoxicity in the data set on Abutilon theophrasti [1] (alachlor 480 g/ha alone) was 20%; with Helianthus annuus (alachlor 480 g/ha alone) it was 3%; in the data set with Panicum miliaceum (alachlor 480 g/ha alone), 53%; in the data set on maize (Zea mays) (alachlor 480 g/ha alone), 0%. For the same compound, the “percent reduction in plant growth” value is 0% with Digitaria sanguinalis (alachlor 4 g/ha alone); 25% in the data set with Digitaria sanguinalis (alachlor 8 g/ha alone); 6.25% with Digitaria sanguinalis (alachlor 16 g/ha alone); 37.5% in the data set with Digitaria sanguinalis (alachlor 32 g/ha alone); 75% in the data set on Digitaria sanguinalis (alachlor 64 g/ha alone); 95% in the data set on Digitaria sanguinalis (alachlor 128 g/ha alone). For the same compound, the “percent reduction in plant growth” value in the data set on Echinochloa crus-galli (alachlor 4 g/ha alone) was determined as 18.75%; with Echinochloa crus-galli (alachlor 8 g/ha alone) it was 5%; with Echinochloa crus-galli (alachlor 16 g/ha alone) it was 12.5%; in the data set with Echinochloa crus-galli (alachlor 32 g/ha alone), 46.25%; in the data set with Echinochloa crus-galli (alachlor 64 g/ha alone), 91.25%; with Echinochloa crus-galli (alachlor 128 g/ha alone), 98.75%.

As for `CS(=O)(=O)c1ccc(C(=O)c2cnoc2C2CC2)c(C(F)(F)F)c1` [Compound B, 5-cyclopropyl-4-(4-methylsulphonyl-2-trifluoromethyl)benzoylisoxazole], the “observed percentage control of the weed species” value (“observed percentage control” below) in the data set with Abutilon theophrasti [2] (B 50 g/ha alone) came out at 75%.

In the case of `CS(=O)(=O)c1ccc(C(=O)c2cnoc2C2CC2)c(Cl)c1` [Compound C, 4-(2-chloro-4-methylsulphonyl)benzoyl-5-cyclopropylisoxazole], in the data set with Abutilon theophrasti [2] (C 50 g/ha alone), the “observed percentage control” value amounted to 73%.

Regarding `CS(=O)(=O)c1cc(Cl)ccc1C(=O)c1cnoc1C1CC1` [Compound D, 4-(4-chlor-2-methylsulphonyl)benzoyl-5-cyclopropylisoxazole], the “observed percentage control” value is recorded as 38% in the data set with Amaranthus retroflexus [3] (setting [6]); 10% in the data set with Amaranthus retroflexus [3] (setting [7]); 10% in the data set with Amaranthus retroflexus [3] (setting [8]); 22% in the data set on Setaria faberii (setting [6]); 62% in the data set on Setaria faberii (setting [7]); 32% in the data set with Setaria faberii (setting [8]).

Regarding `COCC(C)N(C(=O)CCl)c1c(C)csc1C` (stereo not drawn) [Dimethenamid, 2-chloro-N-(2,4-dimethyl-3-thienyl)-N-(2-methoxy-1-methyl)ethyl-acetamide, reference compound], the percentage phytotoxicity in the data set on Abutilon theophrasti [1] (dimethenamid 200 g/ha alone) turned out to be 12%; in the data set on Helianthus annuus (dimethenamid 200 g/ha alone), 3%; with Panicum miliaceum (dimethenamid 200 g/ha alone), 27%; in the data set on maize (Zea mays) (dimethenamid 200 g/ha alone) it was 0%. The “percent reduction in plant growth” value in the data set with Digitaria sanguinalis (dimethenamid 4 g/ha alone) worked out at 16.25%; with Digitaria sanguinalis (dimethenamid 8 g/ha alone) it was 15%; in the data set with Digitaria sanguinalis (dimethenamid 16 g/ha alone) it was 77.5%; with Digitaria sanguinalis (dimethenamid 32 g/ha alone), 89.75%; with Digitaria sanguinalis (dimethenamid 64 g/ha alone) it was 98.25%; in the data set with Digitaria sanguinalis (dimethenamid 128 g/ha alone) it was 92.5%. Besides, the “percent reduction in plant growth” value with Digitaria sanguinalis (dimethenamid 256 g/ha alone) is reported as 98.75%; in the data set on Echinochloa crus-galli (dimethenamid 4 g/ha alone), 17.5%; with Echinochloa crus-galli (dimethenamid 8 g/ha alone) it was 38.75%; in the data set on Echinochloa crus-galli (dimethenamid 16 g/ha alone) it was 81.25%; with Echinochloa crus-galli (dimethenamid 32 g/ha alone), 93.5%; in the data set with Echinochloa crus-galli (dimethenamid 64 g/ha alone), 97.5%. Moreover, in the data set with Echinochloa crus-galli (dimethenamid 128 g/ha alone), the “percent reduction in plant growth” value is 100%.

`CCc1cccc(C)c1N(C(=O)CCl)C(C)COC` (stereo not drawn) [Metolachlor, 2-chloro-6'-ethyl-N-(2-methoxy-1-methylethyl)acet-o-toluidide, reference compound]: the percentage phytotoxicity with Abutilon theophrasti [1] (metolachlor 480 g/ha alone) was 10%; in the data set with Helianthus annuus (metolachlor 480 g/ha alone) it was 3%; in the data set with Panicum miliaceum (metolachlor 480 g/ha alone), 52%; with maize (Zea mays) (metolachlor 480 g/ha alone), 0%. The “observed percentage control” value in the data set on Abutilon theophrasti [2] (metolachlor 1000 g/ha alone) was 0%; in the data set on Amaranthus retroflexus [3] (setting [9]), 38%; with Amaranthus retroflexus [3] (setting [10]), 78%; in the data set with Amaranthus retroflexus [3] (setting [11]) it was 91%; in the data set on Setaria faberii (setting [9]), 91%; in the data set with Setaria faberii (setting [10]), 93%. In addition, the “observed percentage control” value with Setaria faberii (setting [11]) is on record as 84%. The “percent reduction in plant growth” value with Amaranthus retroflexus [4] (metolachlor 31.25 g/ha alone) is 46.25%; in the data set with Amaranthus retroflexus [4] (metolachlor 62.5 g/ha alone) it was 53.75%; in the data set on Amaranthus retroflexus [4] (metolachlor 125 g/ha alone), 35%; in the data set with Amaranthus retroflexus [4] (metolachlor 250 g/ha alone), 85%; in the data set with Amaranthus retroflexus [4] (metolachlor 500 g/ha alone), 95%; with Setaria viridis (metolachlor 2 g/ha alone), 5%. Moreover, the “percent reduction in plant growth” value came out at 22.5% with Setaria viridis (metolachlor 4 g/ha alone); 38.75% in the data set on Setaria viridis (metolachlor 8 g/ha alone); 61.25% with Setaria viridis (metolachlor 16 g/ha alone); 87.5% in the data set with Setaria viridis (metolachlor 32 g/ha alone); 98% in the data set on Setaria viridis (metolachlor 64 g/ha alone).

For the origin of these results see patent EP0845210A1, “New herbicidal compositions” (RHONE-POULENC AGRICULTURE LTD., priority 1994, dated 1996).
